How the values were obtained:
HEK293 = experiment: Cytotoxicity against HEK293 cells after 72 hrs by celltiter-glo assay; format: cell-based; details: Homo sapiens, HEK293, 72 h
BJ = experiment: Cytotoxicity against human BJ cells after 72 hrs by celltiter-glo assay; format: cell-based
HepG2 = experiment: Cytotoxicity against human HepG2 cells after 72 hrs by celltiter-glo assay; format: cell-based; details: HepG2, 72 h
Raji = experiment: Cytotoxicity against human Raji cells after 72 hrs by celltiter-glo assay; format: cell-based
Plasmodium falciparum [1] = experiment: Antimalarial activity against chloroquine and pyrimethamine-resistant Plasmodium falciparum K1 infected in O-positive erythrocytes assessed as parasite growth inhibition after 72 hrs by DNA staining-based assay; format: functional, organism-based; details: K1, 72 h
Plasmodium falciparum [2] = experiment: Antimalarial activity against chloroquine-sensitive Plasmodium falciparum 3D7 infected in O-positive erythrocytes assessed as parasite growth inhibition after 72 hrs by DNA staining-based assay; format: functional, organism-based; details: 3D7, 72 h

Row | SMILES | EC50 (HEK293) | EC50 (BJ) | EC50 (HepG2) | EC50 (Raji) | EC50 (Plasmodium falciparum [1]) | EC50 (Plasmodium falciparum [2])
1 | C/C1=C/C2=C[C@H](C)C[C@@]23O[C@]2(CC(C)(C)[C@@H](OC(C)C)[C@@H]2C1=O)[C@@H](C)C3=O | 26 µM | 26 µM | 26 µM | 26 µM | 15 µM | 15 µM
2 | C=C1CC[C@H]2[C@@H](c3c(C)c(OC(C)=O)c4c(c31)C(=O)C(C)C4)C2(C)C (some centres not stated) | 26 µM | 26 µM | 26 µM | 26 µM | 6.31 µM | 15 µM
3 | C[C@@H]1CC[C@H]2CC3=C(C(=O)O)CC[C@@]31C2(C)C | 26 µM |  | 26 µM | 26 µM | 15 µM | 15 µM
4 | COC(=O)C1=C2C[C@@H]3CC[C@@H](C)[C@]2(CC1)C3(C)C | 26 µM | 26 µM | 26 µM | 26 µM | 15 µM | 15 µM
5 | C[C@@H]1CC[C@H]2CC3=C(C=O)CC[C@@]31C2(C)C | 26 µM | 26 µM | 26 µM | 26 µM | 15 µM | 15 µM
6 | C[C@@H]1CC[C@H]2CC3=C(CO)CC[C@@]31C2(C)C | 26 µM | 26 µM | 26 µM | 26 µM | 15 µM | 15 µM
7 | C[C@@H]1CC[C@H]2CC3C(=O)CC[C@@]31C2(C)C (some centres not stated) | 26 µM | 26 µM | 26 µM | 26 µM | 15 µM | 15 µM
8 | CCOC(=O)CNC(=O)[C@H](CS[C@H]1[C@@H]2C(=O)/C(C)=C\C3=C[C@H](C)C[C@@]34O[C@]2(CC1(C)C)[C@@H](C)C4=O)NC(=O)CC[C@H](N)C(=O)O | 26 µM | 12.5 µM | 26 µM | 6.09 µM | 15 µM | 15 µM
9 | C[C@@H]1C[C@@]23O[C@@]45CC(C)(C)[C@@H](Sc6ccccc6)[C@@H]4C(=O)C(C)(C=C2[C@H]1Sc1ccccc1)[C@]3(O)[C@@H]5C (some centres not stated) | 26 µM | 26 µM | 26 µM | 26 µM | 5.57 µM | 6.45 µM
10 | C/C1=C/[C@]23O[C@H]2[C@H](C)C=C3C(=O)[C@@](C)(O)C(=O)CC(C)(C)/C=C/C1=O | 26 µM | 26 µM | 26 µM | 26 µM | 15 µM | 15 µM
11 | C=C1/C=C/C(C)(C)CC2=C(C)C(=O)[C@]3(C[C@@H](C)C=C3/C=C\1C)O2 | 26 µM | 26 µM | 26 µM | 26 µM | 15 µM | 15 µM
12 | CC1=C2CC(C)(C)/C=C/C/C(C)=C\C3=C[C@H](C)C[C@]3(O2)C1=O | 26 µM | 26 µM | 26 µM | 26 µM | 15 µM | 15 µM
13 | C/C1=C/C2=C[C@H](C)C[C@@]23O[C@]2(CC(C)(C)C[C@@H]2[C@@]1(O)C(F)(F)F)[C@@H](C)C3=O | 26 µM | 26 µM | 26 µM | 26 µM | 15 µM | 15 µM
14 | CC1=C2CC(C)(C)/C=C/C(=O)/C(C)=C\C3=C[C@H](C)C[C@]3(O2)[C@@]1(O)C(F)(F)F | 26 µM | 26 µM | 26 µM | 26 µM | 15 µM | 15 µM
15 | CC1=C2CC(C)(C)/C=C/C(=O)/C(C)=C\C3=C[C@H](C)C[C@]3(O2)[C@]1(C)O | 26 µM | 26 µM | 26 µM | 26 µM | 15 µM | 0.624 µM
16 | CC1=C2CC(C)(C)[C@@H](C)CC(=O)/C(C)=C\C3=C[C@H](C)C[C@]3(O2)C1=O | 26 µM | 26 µM | 26 µM | 26 µM | 15 µM | 15 µM
17 | CC1=C2CC(C)(C)/C=C/C(=O)/C(C)=C\C3=C[C@H](C)C[C@]3(O2)[C@@]1(O)C#N | 26 µM | 26 µM | 26 µM | 21.2 µM | 15 µM | 15 µM
18 | C/C1=C/C2=C[C@H](C)C[C@@]23O[C@]2(CC(C)(C)C[C@@H]2[C@@]1(O)C#N)[C@@H](C)C3=O | 8.66 µM | 26 µM | 26 µM | 26 µM | 15 µM | 15 µM
19 | CC1=C2CC(C)(C)[C@@H]3C=C(OC3)/C(C)=C\C3=C[C@H](C)C[C@]3(O2)C1=O | 26 µM | 26 µM | 26 µM | 26 µM | 15 µM | 15 µM

Row | SMILES | EC50 (HEK293) | EC50 (BJ) | EC50 (HepG2) | EC50 (Raji) | EC50 (Plasmodium falciparum [1]) | EC50 (Plasmodium falciparum [2])
20 | CC1=C2CC(C)(C)/C=C/[C@H](O)/C(C)=C\C3=C[C@H](C)C[C@]3(O2)C1=O | 26 µM | 10.6 µM | 18.7 µM | 26 µM | 15 µM | 9.23 µM
21 | CC(=O)O[C@H]1/C=C/C(C)(C)CC2=C(C)C(=O)[C@]3(C[C@@H](C)C=C3/C=C\1C)O2 | 26 µM | 26 µM | 26 µM | 26 µM | 15 µM | 3.2 µM
22 | CC1=C2CC(C)(C)/C=C/[C@@H](O)/C(C)=C\C3=C[C@H](C)C[C@]3(O2)C1=O | 26 µM | 26 µM | 26 µM | 26 µM | 15 µM | 0.744 µM
23 | CC(=O)O[C@@H]1/C=C/C(C)(C)CC2=C(C)C(=O)[C@]3(C[C@@H](C)C=C3/C=C\1C)O2 | 26 µM | 26 µM | 26 µM | 26 µM | 15 µM | 1.63 µM
24 | CC(=O)O[C@H]1/C=C/C(C)(C)CC2=C(C)[C@@H](OC(C)=O)[C@]3(C[C@@H](C)C=C3/C=C\1C)O2 | 26 µM | 26 µM | 26 µM | 26 µM | 15 µM | 5.68 µM
25 | CC1=C2CC(C)(C)/C=C/[C@H](OC(=S)n3ccnc3)/C(C)=C\C3=C[C@H](C)C[C@]3(O2)C1=O | 26 µM | 26 µM | 26 µM | 26 µM | 5.85 µM | 5.67 µM
26 | CC1=C2CC(C)(C)/C=C/[C@H](OC(=S)Sc3ccccc3)/C(C)=C\C3=C[C@H](C)C[C@]3(O2)C1=O | 26 µM | 26 µM | 26 µM | 26 µM | 15 µM | 15 µM
27 | C/C1=C/C2=C[C@H](C)C[C@@]23O[C@]2(CC(C)(C)C[C@@H]2[C@@H]1OC(=S)Sc1ccccc1)[C@@H](C)C3=O | 17.8 µM | 26 µM | 26 µM | 26 µM | 5.69 µM | 8.88 µM
28 | C/C1=C/C2=C[C@H](C)C[C@@]23O[C@]2(CC(C)(C)[C@@H](Br)[C@@H]2C1=O)[C@](C)(Br)C3=O | 26 µM | 26 µM | 26 µM | 4.38 µM | 15 µM | 15 µM
29 | C/C1=C/C2=C[C@H](C)CC2(Br)C(=O)[C@@]2(C)O[C@@H]([C@@H](Br)C1=O)C(C)(C)CC2=O (some centres not stated) | 26 µM | 26 µM | 26 µM | 26 µM | 15 µM | 15 µM
30 | COc1ccc(/C2=C\C(=O)/C(C)=C\C3=C[C@H](C)C[C@@]34OC(=C(C)C4=O)CC2(C)C)cc1 | 26 µM | 26 µM | 26 µM | 26 µM | 15 µM | 15 µM
31 | CC1=C2CC(C)(C)/C(c3ccccc3)=C/C(=O)/C(C)=C\C3=C[C@H](C)C[C@]3(O2)C1=O | 26 µM | 26 µM | 26 µM | 26 µM | 15 µM | 15 µM
32 | C/C1=C/C2=C[C@H](C)C[C@@]23O[C@]2(CC(C)(C)[C@@H](O)[C@@H]2C1=O)[C@@H](C)C3=O | 26 µM | 10.4 µM | 26 µM | 26 µM | 15 µM | 15 µM
33 | CO[C@H]1[C@@H]2C(=O)/C(C)=C\C3=C[C@H](C)C[C@@]34O[C@]2(CC1(C)C)[C@@H](C)C4=O | 26 µM | 26 µM | 26 µM | 26 µM | 15 µM | 15 µM
34 | C/C1=C/C2=C[C@H](C)C[C@@]23O[C@]2(CC(C)(C)C4CC1(ON4)O2)C(C)C3=O (some centres not stated) | 26 µM | 26 µM | 26 µM | 26 µM | 15 µM | 15 µM
35 | C/C1=C/C2=C[C@H](C)C[C@@]23O[C@]2(CC(C)(C)[C@@H](Nc4ccccc4)[C@@H]2C1=O)[C@@H](C)C3=O | 26 µM | 12.6 µM | 26 µM | 26 µM | 5.58 µM | 8.88 µM
36 | CC1=C2CC(C)(C)CCC(=O)C(C)CC3C[C@H](C)C[C@]3(O2)C1=O (mixture of isomers) | 26 µM | 26 µM | 26 µM | 26 µM | 15 µM | 15 µM
37 | CC1=C2CC(C)(C)CCC(=O)C(C)CC3=C[C@H](C)C[C@]3(O2)C1=O (mixture of isomers) | 26 µM | 26 µM | 26 µM | 26 µM | 15 µM | 15 µM
38 | CC(=O)O[C@H]1CC[C@]2(C)[C@H]3CC[C@]4(C)C(=CC[C@@]5(C(=O)O)CCC(C)(C)C[C@H]54)[C@]3(C)CC[C@H]2C1(C)C [ACETYL ALEURITOLIC ACID] | 26 µM | 26 µM | 26 µM | 26 µM | 15 µM | 15 µM

— ChEMBL document CHEMBL2401682, “Evaluation of Jatropha isabelli natural products and their synthetic analogs as potential antimalarial therapeutic agents” (Eur J Med Chem, 2013)
